14 molecules from patent US8906925B2, “Pyrido[4,3-B]indoles containing rigid moieties” (Medivation Technologies, Inc., priority 2008, dated 2014) can be followed below.

Structures are written as SMILES. Read-outs that look alike come from different tables or passages of the source.

Experiment [1] addresses T1, human recombinant adrenergic α1D receptor (Homo sapiens, UniProt P25100).
T1 construct: expressed in transfected cells; host or cells: human embryonic kidney (HEK-293) cells
T1 sequence (P25100 1-572): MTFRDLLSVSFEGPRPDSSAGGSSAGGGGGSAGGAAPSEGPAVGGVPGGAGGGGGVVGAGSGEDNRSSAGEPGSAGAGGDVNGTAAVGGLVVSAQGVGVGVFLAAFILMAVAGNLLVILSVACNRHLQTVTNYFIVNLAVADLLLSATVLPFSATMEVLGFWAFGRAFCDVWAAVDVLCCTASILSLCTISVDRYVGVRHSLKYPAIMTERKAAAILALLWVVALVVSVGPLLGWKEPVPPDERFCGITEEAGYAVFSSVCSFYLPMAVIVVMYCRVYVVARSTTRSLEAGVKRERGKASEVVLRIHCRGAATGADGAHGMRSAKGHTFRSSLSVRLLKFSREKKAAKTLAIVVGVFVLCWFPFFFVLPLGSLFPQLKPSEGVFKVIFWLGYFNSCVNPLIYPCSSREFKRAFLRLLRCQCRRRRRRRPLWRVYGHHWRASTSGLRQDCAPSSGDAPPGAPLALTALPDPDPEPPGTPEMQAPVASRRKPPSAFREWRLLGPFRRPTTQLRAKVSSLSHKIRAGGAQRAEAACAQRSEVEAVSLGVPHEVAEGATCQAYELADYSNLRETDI
Description: Adrenergic α1D radioligand binding ([3H]Prozosin). Particulars: compound at 1 μM. As for the experimental part: Compounds of invention were incubated with 0.6 nM [^3H]Prozosin for 60 min. at 25° C. Non-specific binding was estimated in the presence of 10 μM phentolamine. Receptor proteins were filtered and washed, the filters were then counted to determine [^3H]Prozosin specifically bound. Compounds were screened at 1 μM or lower, using 1% DMSO as vehicle. Biochemical assay results are presented as the percent inhibition of specific binding in Table 9.

Experiment [2] concerns the target T2, human recombinant serotonin (5-Hydroxytryptamine) 5-HT2A receptor (Homo sapiens, UniProt P28223).
T2 construct: expressed in transfected cells; host or cells: Chinese hamster ovary (CHO-K1) cells
Description: Serotonin 5-HT2A radioligand binding ([3H]Ketanserin). The conditions noted are these: for inhibition at 1 µM: read-out: Inhibition of ligand binding, Serotonin 5-HT2A (percent inhibition of specific binding), compound at 1 μM; for inhibition at 0.1 µM: read-out: Inhibition of ligand binding, Serotonin 5-HT2A (percent inhibition of specific binding), compound at 0.1 μM. As for the experimental part: Compounds of the invention were incubated with 0.5 nM [^3H]Ketanserin for 60 min. at 25° C. Non-specific binding was estimated in the presence of 1 μM Mianserin. Receptor proteins were filtered and washed, the filters were then counted to determine [^3H]Ketanserin specifically bound.

Experiment [3] deals with T3, human recombinant serotonin (5-Hydroxytryptamine) 5-HT2C receptor (Homo sapiens, UniProt P28335).
T3 construct: expressed in transfected cells; host or cells: Chinese hamster ovary (CHO-K1) cells
T3 sequence (P28335 33-458): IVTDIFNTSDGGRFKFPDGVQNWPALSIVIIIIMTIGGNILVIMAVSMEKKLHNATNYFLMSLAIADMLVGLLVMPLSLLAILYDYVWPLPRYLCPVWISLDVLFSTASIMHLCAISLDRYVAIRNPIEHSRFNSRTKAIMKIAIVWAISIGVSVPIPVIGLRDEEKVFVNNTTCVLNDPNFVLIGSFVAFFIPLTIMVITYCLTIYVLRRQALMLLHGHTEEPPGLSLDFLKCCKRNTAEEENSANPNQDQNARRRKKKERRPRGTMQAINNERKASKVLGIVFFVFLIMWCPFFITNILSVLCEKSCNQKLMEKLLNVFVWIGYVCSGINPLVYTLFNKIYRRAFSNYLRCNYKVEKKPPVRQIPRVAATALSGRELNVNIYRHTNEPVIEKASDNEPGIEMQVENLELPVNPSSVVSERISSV
Description: Serotonin 5-HT2C radioligand binding ([3H]Mesulergine). Particulars: read-out: Inhibition of ligand binding, Serotonin 5-HT2C (percent inhibition of specific binding); for inhibition at 1 µM: compound at 1 μM; for inhibition at 0.1 µM: compound at 0.1 μM. An outline of the steps:
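Compounds tested at 1 μM or lower (1% DMSO vehicle) for displacement of 1 nM [3H]Mesulergine over 60 min at 25° C. Specific binding determined by filtration counting, with 1 μM Mianserin defining non-specific binding; values are percent inhibition.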

For experiment [4], the target named is T4, human recombinant serotonin (5-Hydroxytryptamine) 5-HT6 receptor (Homo sapiens, UniProt P50406).
T4 construct: expressed in transfected cells; host or cells: human HeLa cells
The experiment in a line: Serotonin 5-HT6 radioligand binding ([3H]LSD). Particulars: read-out: Inhibition of ligand binding, Serotonin 5-HT6 (percent inhibition of specific binding); for inhibition at 1 µM: compound at 1 μM; for inhibition at 0.1 µM: compound at 0.1 μM. As for the experimental part:
Compounds of the invention were incubated with 1.5 nM [3H]Lysergic acid diethylamide (LSD) for 120 min. at 37° C. […] Receptor proteins were filtered and washed, the filters were then counted to determine [3H]LSD specifically bound. Compounds were screened at 1 μM or lower, using 1% DMSO as vehicle. Biochemical assay results are presented as the percent inhibition of specific binding in Table 10.

Experiment [5] concerns the target human recombinant serotonin (5-Hydroxytryptamine) 5-HT7 receptor (Homo sapiens, UniProt P34969). Description: Serotonin 5-HT7 radioligand binding ([3H]LSD). The text has this:
Receptor proteins were filtered and washed, the filters were then counted to determine [^3H]LSD specifically bound.

The mark [6] stands for this setting: read-out: Inhibition of ligand binding, Adrenergic α1D (percent inhibition of specific binding).
[7] abbreviates: compound at 1 μM, read-out: Inhibition of ligand binding, Serotonin 5-HT7 (percent inhibition of specific binding).
Where [8] appears, read: percent inhibition of specific binding, read-out: Inhibition of ligand binding, Adrenergic α1D.

T2 sequence (P28223 whole entry): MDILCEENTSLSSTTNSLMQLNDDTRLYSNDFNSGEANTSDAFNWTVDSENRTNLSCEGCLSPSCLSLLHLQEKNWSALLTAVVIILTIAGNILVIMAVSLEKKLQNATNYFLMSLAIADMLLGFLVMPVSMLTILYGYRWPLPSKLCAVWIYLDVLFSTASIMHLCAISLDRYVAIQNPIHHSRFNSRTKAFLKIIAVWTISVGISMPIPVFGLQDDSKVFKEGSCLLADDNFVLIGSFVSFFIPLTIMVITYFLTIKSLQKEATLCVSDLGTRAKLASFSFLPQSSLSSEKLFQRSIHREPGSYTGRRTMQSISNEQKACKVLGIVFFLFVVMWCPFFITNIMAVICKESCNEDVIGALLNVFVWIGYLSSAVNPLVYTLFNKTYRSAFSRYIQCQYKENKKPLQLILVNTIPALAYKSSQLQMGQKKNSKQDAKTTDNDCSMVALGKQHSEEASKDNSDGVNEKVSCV
Chain of human recombinant serotonin (5-Hydroxytryptamine) 5-HT7 receptor (P34969 whole entry): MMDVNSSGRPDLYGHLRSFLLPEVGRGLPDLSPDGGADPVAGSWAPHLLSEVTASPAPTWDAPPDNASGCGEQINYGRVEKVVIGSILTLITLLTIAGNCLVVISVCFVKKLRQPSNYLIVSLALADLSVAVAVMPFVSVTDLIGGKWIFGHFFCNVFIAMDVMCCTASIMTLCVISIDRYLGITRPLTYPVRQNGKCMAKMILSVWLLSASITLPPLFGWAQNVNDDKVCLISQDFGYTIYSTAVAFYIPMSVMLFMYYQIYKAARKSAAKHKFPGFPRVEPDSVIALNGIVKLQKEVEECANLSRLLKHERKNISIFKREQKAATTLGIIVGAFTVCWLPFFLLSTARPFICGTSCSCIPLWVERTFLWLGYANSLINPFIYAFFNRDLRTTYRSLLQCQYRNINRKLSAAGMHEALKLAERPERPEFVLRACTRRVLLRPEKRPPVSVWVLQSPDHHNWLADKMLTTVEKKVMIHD
T4 sequence (P50406 whole entry): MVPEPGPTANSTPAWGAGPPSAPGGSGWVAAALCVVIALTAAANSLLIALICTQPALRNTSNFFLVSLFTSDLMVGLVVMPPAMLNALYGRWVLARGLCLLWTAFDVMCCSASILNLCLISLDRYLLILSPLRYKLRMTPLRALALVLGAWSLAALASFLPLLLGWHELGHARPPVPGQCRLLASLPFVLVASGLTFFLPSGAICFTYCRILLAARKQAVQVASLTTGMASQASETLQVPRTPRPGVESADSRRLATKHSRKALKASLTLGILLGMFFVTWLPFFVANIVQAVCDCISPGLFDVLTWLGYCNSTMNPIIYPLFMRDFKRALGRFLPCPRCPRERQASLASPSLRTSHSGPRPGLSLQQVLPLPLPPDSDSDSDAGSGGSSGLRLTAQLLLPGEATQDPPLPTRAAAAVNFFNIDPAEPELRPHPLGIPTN

Broadly, the inhibition is the drop in the measured response relative to a control, in per cent. Take `Cc1ccc2c(c1)c1c(n2C#Cc2ccc(Cl)cc2)CCN(C)C1` [Compound No. 481, 5-((4-chlorophenyl)ethynyl)-2,8-dimethyl-2,3,4,5-tetrahydro-1H-pyrido[4,3-b]indole]: the inhibition at 1 µM in experiment [1] (setting [6]) turned out to be 77%; in experiment [2], 101%; in experiment [3], 104%; in experiment [4] it was 87%; in experiment [5] (setting [7]), 84%.
For `CN1CCc2c(c3cc(Cl)ccc3n2C#Cc2ccc(Cl)cc2)C1` [Compound No. 480, 8-chloro-5-((4-chlorophenyl)ethynyl)-2-methyl-2,3,4,5-tetrahydro-1H-pyrido[4,3-b]indole], in that order: 68%, 98%, 102%, 67% and 84%.
As to `CCN1CCc2c(c3cc(C)ccc3n2CC(O)c2ccc(C)cc2)C1` (racemic) [Compound 51, racemic-2-(2-ethyl-1,2,3,4-tetrahydro-8-methylpyrido[4,3-b]indol-5-yl)-1-p-tolylethanol], the inhibition at 1 µM came out at 89% in experiment [1] (setting [8]); 102% in experiment [2]; 84% in experiment [3]; 83% in experiment [4]; 91% in experiment [5] (setting [7]). In addition, the inhibition at 0.1 µM in experiment [3] was found to be 43%; in experiment [4], 29%.
With `C/C(=C\n1c2c(c3cc(Cl)ccc31)CN(C)CC2)c1ccncc1` [Compound 90, (E)-8-chloro-2,3,4,5-tetrahydro-2-methyl-5-(2-(pyridin-4-yl)prop-1-enyl)-1H-pyrido[4,3-b]indole], the inhibition at 1 µM in experiment [1] (setting [8]) is 93%; in experiment [2], 100%; in experiment [3] it was 97%; in experiment [4] it was 103%. The inhibition at 0.1 µM in experiment [2] came out at 97%; in experiment [3] it was 85%; in experiment [4], 102%; in experiment [5] (compound at 0.1 μM, read-out: Inhibition of ligand binding, Serotonin 5-HT7 (percent inhibition of specific binding)), 82%.
For `CC(=Cn1c2c(c3cc(Cl)ccc31)CN(C)CC2)c1ccc(Cl)cc1Cl` (stereo in doubt) [Compound 111, (Z)-8-chloro-5-(2-(2,4-dichlorophenyl)prop-1-enyl)-2,3,4,5-tetrahydro-2-methyl-1H-pyrido[4,3-b]indole], the “Inhibition of ligand binding, Adrenergic α1D” value in experiment [1] (percent inhibition of specific binding, 1 µM) is recorded as 47%. Besides, the figures for the inhibition at 0.1 µM in experiment [2], in experiment [3] and in experiment [4] were 86%, 95% and 71%, respectively. Further, the inhibition at 1 µM in experiment [2] came to 99%; in experiment [3] it was 100%; in experiment [4], 94%. In experiment [5] (compound at 1 μM, 1 µM), the “Inhibition of ligand binding, Serotonin 5-HT7 (percent inhibition of specific binding)” value is on record as 102%.
With `COc1ccc(C(C)(O)Cn2c3c(c4cc(C)ccc42)CN(C)CC3)cc1F` (stereo not drawn) [Compound 173, 1-(2,8-dimethyl-3,4-dihydro-1H-pyrido[4,3-b]indol-5(2H)-yl)-2-(3-fluoro-4-methoxyphenyl)propan-2-ol], the inhibition at 1 µM in experiment [1] (setting [8]) came out at 58%; in experiment [3], 98%; in experiment [4], 85%; in experiment [5] (setting [7]), 103%.
In the case of `CN1CCc2c(c3cc(Cl)ccc3n2CC(O)c2cccnc2)C1` (stereo not drawn) [Compound 56, 2-(8-chloro-1,2,3,4-tetrahydro-2-methylpyrido[4,3-b]indol-5-yl)-1-(pyridin-3-yl)ethanol], the inhibition at 1 µM was determined as 43% in experiment [1] (setting [8]), 68% in experiment [2], 38% in experiment [3] and 62% in experiment [4].
In the same order, the values of `C=C(Cn1c2c(c3cc(Cl)ccc31)CN(C)CC2)c1cccnc1` [Compound 133, 8-chloro-2,3,4,5-tetrahydro-2-methyl-5-(2-(pyridin-3-yl)allyl)-1H-pyrido[4,3-b]indole] are 55%, 96%, 96% and 80%.
For `COc1ccc(/C(C)=C/n2c3c(c4cc(Cl)ccc42)CN(C)CC3)cc1F` [Compound 93, (E)-8-chloro-5-(2-(3-fluoro-4-methoxyphenyl)prop-1-enyl)-2,3,4,5-tetrahydro-2-methyl-1H-pyrido[4,3-b]indole], in that order: 96%, 100%, 99% and 93%.
As for `Cc1ccc2c(c1)c1c(n2CC(C)(O)c2ccc(C)nc2)CCN(C)C1` (stereo not drawn) [Compound 52, 1-(1,2,3,4-tetrahydro-2,8-dimethylpyrido[4,3-b]indol-5-yl)-2-(6-methylpyridin-3-yl)propan-2-ol], the inhibition at 1 µM turned out to be 39% in experiment [1] (setting [8]), 83% in experiment [2], 87% in experiment [3] and 37% in experiment [4].
On to `C=C(Cn1c2c(c3cc(Cl)ccc31)CN(C)CC2)c1ccc(C)nc1` [Compound 136, 8-chloro-2,3,4,5-tetrahydro-2-methyl-5-(2-(6-methylpyridin-3-yl)allyl)-1H-pyrido[4,3-b]indole], for which the inhibition at 1 µM in experiment [1] (setting [8]) was 70%; in experiment [2] it was 100%; in experiment [3], 93%; in experiment [4], 73%.
For `CN1CCc2c(c3cc(Cl)ccc3n2CC(C)(O)c2cccnc2)C1` (stereo not drawn) [Compound 61, 1-(8-chloro-1,2,3,4-tetrahydro-2-methylpyrido[4,3-b]indol-5-yl)-2-(pyridin-3-yl)propan-2-ol], in that order: 87%, 77%, 90% and 65%.
For `CN1CCc2c(c3cc(Cl)ccc3n2C2=C(c3cccnc3)CCCC2)C1` [Compound No. 166, 8-chloro-2-methyl-5-(2-(pyridin-3-yl)cyclohex-1-enyl)-2,3,4,5-tetrahydro-1H-pyrido[4,3-b]indole], in that order: 28%, 46%, 46% and 6%.
As for `CN1CCc2c(c3cc(Cl)ccc3n2C/C=C/c2ccncc2)C1` [Compound 127, 8-chloro-2,3,4,5-tetrahydro-2-methyl-5-((E)-3-(pyridin-4-yl)allyl)-1H-pyrido[4,3-b]indole], the inhibition at 1 µM in experiment [1] (setting [8]) was 46%; in experiment [2], 84%; in experiment [3] it was 72%; in experiment [4] it was 41%.
